# ChEMBL document CHEMBL1201862, “PubChem BioAssay data set” (2004)
# Where “and” joins values, the source holds several entries; their conditions need not be identical. Equal entries are not always repeated.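 96-well plates; 48 h exposure; 5 concentrations. Endpoints by linear interpolation between flanking doses. Not reached: highest tested concentration assigned. GI50 is the concentration that inhibits growth by half.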 Calls of active or inactive are those of the source. No stated cut-off is given here; in the data, active = GI50 up to about 1.1 µM and inactive = higher. Residues, ends and D or L forms follow the SMILES beside them. *: point of attachment. Boc = CC(C)(C)OC(=O)*
# Assays:
# Assay in all cases: inhibition of tumour cell growth, NCI panel, 48 h
# [1] = system: 786-0
# [2] = system: A549
# [3] = system: ACHN
# [4] = system: BT-549
# [5] = system: CAKI-1
# [6] = system: CCRF-CEM
# [7] = system: COLO 205
# [8] = system: DU-145
# [9] = system: EKVX
# [10] = system: HCC 2998
# [11] = system: HCT-116
# [12] = system: HCT-15
# [13] = system: HL-60
# [14] = system: HOP-62
# [15] = system: HT-29
# [16] = system: K562
# [17] = system: KM12
# [18] = system: M14
# [19] = system: MCF7
# [20] = system: MDA-MB-231
# [21] = system: MDA-MB-435
# [22] = system: MDA-N
# [23] = system: MOLT-4
# [24] = system: Malme-3M
# [25] = system: NCI-H23
# [26] = system: NCI-H460
# [27] = system: NCI/ADR-RES
# [28] = system: OVCAR-3
# [29] = system: OVCAR-4
# [30] = system: OVCAR-5
# [31] = system: OVCAR-8
# [32] = system: PC-3
# [33] = system: RPMI-8226
# [34] = system: SF-295
# [35] = system: SK-MEL-28
# [36] = system: SK-MEL-2
# [37] = system: SK-MEL-5
# [38] = system: SN12C
# [39] = system: SNB-19
# [40] = system: SR
# [41] = system: TK-10
# [42] = system: U-251
# [43] = system: UO-31
# [44] = system: A498
# [45] = system: HOP-92
# [46] = system: IGROV-1
# [47] = system: LOX IMVI
# [48] = system: NCI-H522
# [49] = system: SF-268
# [50] = system: SF-539
# [51] = system: SK-OV-3
# [52] = system: SNB-75
# [53] = system: SW-620
# [54] = system: T47D
# [55] = system: UACC-257
# [56] = system: UACC-62
# [57] = system: NCI-H226
# [58] = system: RXF 393
smiles,measurement,setting,value
O=C(c1cccc2ccccc12)C1S(=O)(=O)OCCOS1(=O)=O,GI50,[1],> 100 µM (inactive)
same,GI50,[2],> 100 µM (inactive)
same,GI50,[3],> 100 µM (inactive)
same,GI50,[4],> 100 µM (inactive)
same,GI50,[5],> 100 µM (inactive)
same,GI50,[6],> 100 µM (inactive)
same,GI50,[7],> 100 µM (inactive)
same,GI50,[8],> 100 µM (inactive)
same,GI50,[9],> 100 µM (inactive)
same,GI50,[10],> 100 µM (inactive)
same,GI50,[11],> 100 µM (inactive)
same,GI50,[12],> 100 µM
same,GI50,[13],> 100 µM (inactive)
same,GI50,[14],> 100 µM (inactive)
same,GI50,[15],> 100 µM (inactive)
same,GI50,[16],> 100 µM (inactive)
same,GI50,[17],> 100 µM (inactive)
same,GI50,[18],> 100 µM (inactive)
same,GI50,[19],> 100 µM (inactive)
same,GI50,[20],> 100 µM (inactive)
same,GI50,[21],> 10 µM (inactive)
same,GI50,[22],> 100 µM (inactive)
same,GI50,[23],> 100 µM (inactive)
same,GI50,[24],> 100 µM (inactive)
same,GI50,[25],> 100 µM (inactive)
same,GI50,[26],> 100 µM (inactive)
same,GI50,[27],> 100 µM (inactive)
same,GI50,[28],> 100 µM (inactive)
same,GI50,[29],> 100 µM (inactive)
same,GI50,[30],> 100 µM (inactive)
same,GI50,[31],> 100 µM (inactive)
same,GI50,[32],> 100 µM (inactive)
same,GI50,[33],> 100 µM (inactive)
same,GI50,[34],0.0151 µM (active)
same,GI50,[35],> 100 µM (inactive)
same,GI50,[36],> 100 µM (inactive)
same,GI50,[37],> 100 µM (inactive)
same,GI50,[38],> 100 µM (inactive)
same,GI50,[39],> 100 µM (inactive)
same,GI50,[40],> 100 µM (inactive)
same,GI50,[41],> 100 µM (inactive)
same,GI50,[42],> 100 µM (inactive)
same,GI50,[43],> 100 µM (inactive)
CC(NC(=O)C(NC(=O)OC(C)(C)C)C(C)C)C(=O)N1CCCC1C(=O)NCC(=O)NC(C(=O)NCC(=O)O)C(C)C (stereo unspecified) (Boc-VAPGVG-OH; configuration not given here),GI50,[1],> 100 µM (inactive)
same,GI50,[44],> 100 µM (inactive)
same,GI50,[3],> 100 µM (inactive)
same,GI50,[5],> 100 µM (inactive)
same,GI50,[6],> 100 µM (inactive)
same,GI50,[7],> 100 µM (inactive)
same,GI50,[8],> 100 µM (inactive)
same,GI50,[9],> 100 µM (inactive)
same,GI50,[10],77.3 µM (inactive)
same,GI50,[11],> 100 µM (inactive)
same,GI50,[12],> 100 µM
same,GI50,[13],> 100 µM (inactive)
same,GI50,[14],> 100 µM (inactive)
same,GI50,[45],29.2 µM (inactive)
same,GI50,[15],> 100 µM (inactive)
same,GI50,[46],> 100 µM (inactive)
same,GI50,[16],> 100 µM (inactive)
same,GI50,[47],> 100 µM (inactive)
same,GI50,[18],> 100 µM (inactive)
same,GI50,[19],> 100 µM (inactive)
same,GI50,[20],92.3 µM (inactive)
same,GI50,[21],> 100 µM (inactive)
same,GI50,[22],> 100 µM (inactive)
same,GI50,[23],> 100 µM (inactive)
same,GI50,[24],> 100 µM (inactive)
same,GI50,[25],> 100 µM (inactive)
same,GI50,[26],65.5 µM (inactive)
same,GI50,[48],> 100 µM (inactive)
same,GI50,[27],> 100 µM (inactive)
same,GI50,[28],> 100 µM (inactive)
same,GI50,[29],> 100 µM (inactive)
same,GI50,[30],> 100 µM (inactive)
same,GI50,[31],> 100 µM (inactive)
same,GI50,[32],> 100 µM (inactive)
same,GI50,[33],> 100 µM (inactive)
same,GI50,[49],> 100 µM (inactive)
same,GI50,[34],> 100 µM (inactive)
same,GI50,[50],> 100 µM (inactive)
same,GI50,[35],> 100 µM (inactive)
same,GI50,[36],> 100 µM (inactive)
same,GI50,[51],> 100 µM (inactive)
same,GI50,[38],> 100 µM (inactive)
same,GI50,[39],> 100 µM (inactive)
same,GI50,[52],29.2 µM (inactive)
same,GI50,[40],> 100 µM (inactive)
same,GI50,[53],> 100 µM (inactive)
same,GI50,[54],> 100 µM (inactive)
same,GI50,[41],> 100 µM (inactive)
same,GI50,[42],> 100 µM (inactive)
same,GI50,[55],> 100 µM (inactive)
same,GI50,[56],> 100 µM (inactive)
same,GI50,[43],> 100 µM (inactive)
O=P(O)(O)OC1C(OP(=O)(O)O)C(OP(=O)(O)O)C(OP(=O)(O)O)C(OP(=O)(O)O)C1OP(=O)(O)O (stereo unspecified) [PHYTATE],GI50,[9],> 500 µM (inactive)
O=C1N/C(=N/N=C\C(O)C(O)C(O)C(O)CO)N/C1=C/c1ccccc1 (stereo unspecified),GI50,[27],> 100 µM (inactive) and 67 µM (inactive)
same,GI50,[56],> 100 µM (inactive)
CC1(C)OC[C@@H]([C@H](O)C2C=CC(=O)S2)O1 (stereo partly specified),GI50,[1],22.9 µM (inactive)
same,GI50,[44],21.4 µM (inactive)
same,GI50,[2],29.6 µM (inactive)
same,GI50,[3],19.2 µM (inactive)
same,GI50,[4],17.9 µM (inactive)
same,GI50,[5],28.1 µM (inactive)
same,GI50,[6],24.1 µM (inactive)
same,GI50,[7],17.9 µM (inactive)
same,GI50,[8],21.2 µM (inactive)
same,GI50,[9],31 µM (inactive)
same,GI50,[10],16.6 µM (inactive)
same,GI50,[11],14.3 µM (inactive)
same,GI50,[12],19.8 µM
same,GI50,[13],8.73 µM (inactive)
same,GI50,[14],47.9 µM (inactive)
same,GI50,[45],22.4 µM (inactive)
same,GI50,[15],23.6 µM (inactive)
same,GI50,[16],25.4 µM (inactive)
same,GI50,[17],14.6 µM (inactive)
same,GI50,[47],15.7 µM (inactive)
same,GI50,[18],44.3 µM (inactive)
same,GI50,[19],30.2 µM (inactive)
same,GI50,[20],30.8 µM (inactive)
same,GI50,[21],37.8 µM (inactive)
same,GI50,[22],22.1 µM (inactive)
same,GI50,[23],32 µM (inactive)
same,GI50,[24],18.1 µM (inactive)
same,GI50,[57],27.5 µM (inactive)
same,GI50,[25],26.4 µM (inactive)
same,GI50,[26],28.2 µM (inactive)
same,GI50,[27],21.5 µM (inactive)
same,GI50,[28],50.5 µM (inactive)
same,GI50,[29],42.1 µM (inactive)
same,GI50,[30],63.7 µM (inactive)
same,GI50,[31],21.2 µM (inactive)
same,GI50,[32],34 µM (inactive)
same,GI50,[33],18.4 µM (inactive)
same,GI50,[58],15 µM (inactive)
same,GI50,[49],15.5 µM (inactive)
same,GI50,[34],27.5 µM (inactive)
same,GI50,[50],27.4 µM (inactive)
same,GI50,[36],20.3 µM (inactive)
same,GI50,[37],18.7 µM (inactive)
same,GI50,[51],34.6 µM (inactive)
same,GI50,[38],27.9 µM (inactive)
same,GI50,[39],43.6 µM (inactive)
same,GI50,[52],45.5 µM (inactive)
same,GI50,[53],32 µM (inactive)
same,GI50,[41],44.9 µM (inactive)
same,GI50,[42],27.7 µM (inactive)
same,GI50,[55],26.8 µM (inactive)
same,GI50,[56],14.6 µM (inactive)
same,GI50,[43],20.8 µM (inactive)
